One may read the EC50 as the concentration needed to bring the measured effect to its halfway point. For orientation: IC50 means the concentration that inhibits the measured activity by half. Low readings indicate greater potency in that assay, high ones weaker potency in that assay.

Active and inactive are the calls of the source.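 How the source made its calls: active means compounds giving half or more protection of infected cells from virus-caused growth loss, again on retest; inactive means the rest.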

The test system of the experiment is CEM cells HIV-1 protection, formazan growth assay. Briefly: NCI AIDS Antiviral Assay. The conditions noted are these: for IC50: measured here: growth of uninfected CEM cells. In short, it runs like this:
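Protection of CEM cells against HIV-1 was scored from cell growth (soluble formazan) across five concentrations, with parallel uninfected cells. Lack of protection may reflect toxicity.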

As for `CC1C2C1C1C3NN=CC3C2n2c(=O)n(-c3ccccc3)c(=O)n21` (configuration not stated), the EC50 is more than 200 µM and the IC50 was more than 200 µM.

`CN(C)c1cc(CN(CCSS(=O)c2ccccc2[N+](=O)[O-])S(=O)c2ccccc2[N+](=O)[O-])nc(CN(CCSS(=O)c2ccccc2[N+](=O)[O-])S(=O)c2ccccc2[N+](=O)[O-])c1` (configuration not stated): the EC50 was more than 100 µM and the IC50 was more than 100 µM.

On to `O=Nc1c(O)ccc2ccccc12`, for which the EC50 was more than 200 µM and the IC50 is 2.4 µM.

In the case of `CC12CC(c3ccccc3N1)C1CC2(C)Nc2ccccc21`, the EC50 was more than 64.6 µM and the IC50 is more than 64.6 µM.

For `CCCCCCCCCCCCCCCCCCOC(COP(=O)(O)OCC1OC(n2cc(C)c(=O)[nH]c2=O)CC1N=[N+]=[N-])COP(=O)(O)OC1CC(n2cc(C)c(=O)[nH]c2=O)OC1CO` (configuration not stated), the EC50 is 0.17 µM and the 50% inhibitory concentration (IC50) is 30.9 µM.

Turning to `CC1CC[C@@]23CCC4(C)[C@@](C=CC5[C@@]6(C)CCC(=O)C(C)(C)C6CC[C@]54C)(OC2=O)[C@@H]3[C@H]1C` (some centres not stated), the outcome was inactive.

On to `C/C=C/C=Nc1c(C#N)c2n(c1C(=O)Nc1ccccc1)CCCC2`, for which the EC50 is more than 50.1 µM and the IC50 is more than 50.1 µM.

For the compound `Cc1c2c(n(CCc3ccccc3)c1C)NN=C(C#N)S2(=O)=O`, the EC50 is more than 200 µM and the IC50 was more than 200 µM.

As to `O=C1/C(=C\c2cccc(Oc3ccccc3)c2)S(=O)(=O)C(c2ccccc2)N1c1ccccc1Cl` (configuration not stated), the EC50 is more than 2 µM and the half-maximal inhibitory concentration (IC50) came out at 0.0427 µM.

Consider `Cn1c(=O)cc(NNc2ccc(Cl)c(Cl)c2)[nH]c1=O`, for which the EC50 was more than 200 µM and the IC50 amounted to 3.09 µM.

On to `COCCOCC(=O)N(CCn1ccc(NC(c2ccccc2)(c2ccccc2)c2ccccc2)nc1=O)CCn1cnc2nc(N)[nH]c(=O)c21`, for which the EC50 was 28.8 µM and the IC50 turned out to be 60.3 µM.

For `Cc1cc(C)nc(NS(=O)(=O)c2ccc(NNc3c4ccccc4nc4c(C(=O)Nc5ccc(S(=O)(=O)N=C(N)N)cc5)cccc34)cc2)n1`, the EC50 is more than 200 µM and the IC50 came out at 31.6 µM.

In the case of `CCOc1ccc(/C(Cl)=C(\C=O)c2ccc(OC)c(OC)c2)cc1OCC`, the EC50 was more than 25.7 µM and the half-inhibitory concentration (IC50) was 14.1 µM.

On to `COC(=O)C(Cc1ccc(Oc2cc(CC(NC(=O)c3ccccc3)C(=O)OC)ccc2OC)cc1)NC(=O)c1ccccc1` (configuration not stated), for which the EC50 was more than 200 µM and the IC50 is 16.6 µM.

For `CCC1CCCCN1CC(C(C)=O)C(c1ccccc1)c1c(O)c2ccccc2oc1=O` (configuration not stated), the EC50 was more than 69.2 µM and the IC50 was more than 69.2 µM.

For `COc1ccc(Cn2c3ccc([N+](=O)[O-])cc3c(=O)n2Cc2ccccn2)cc1`, the EC50 was more than 200 µM and the IC50 was more than 200 µM.

As for `CC(C)=CCNc1ncnc2c1ncn2CCC(=O)OC(C)(C)C`, the EC50 is more than 200 µM and the IC50 was found to be 117 µM.

As to `CS(=O)(=O)Nc1c(-c2ccccc2)oc2ccccc2c1=O`, the EC50 was more than 200 µM and the IC50 is more than 200 µM.

With `OCCNc1nnc(NCCO)c2[nH]cnc12`, the outcome was inactive.

Turning to `Nc1nc2cc(CNc3ccc(C(=O)NC(CCC(=O)O)C(=O)O)cc3)ccc2nc1-c1ccccc1` (configuration not stated), the EC50 is more than 200 µM and the IC50 worked out at 12.3 µM.

For the compound `O=C(Nc1ccc(-c2cccs2)oc1=O)c1ccccc1`, the EC50 is more than 200 µM and the IC50 was more than 200 µM.

As for `Nc1ccccc1C(=O)NNC(=O)c1ccccc1N`, the EC50 is more than 200 µM and the IC50 was more than 200 µM.

Consider `COC(=N)CCCl`, for which the EC50 was more than 200 µM and the IC50 is more than 200 µM.

Turning to `c1ccc(CN2COCO[C@H]3CCC[C@@H]32)cc1`, the EC50 is more than 200 µM and the IC50 worked out at 123 µM.

Regarding `O=S(=O)(O)c1ccc(Nc2ccnc3ccccc23)cc1`, the EC50 was more than 200 µM and the IC50 was more than 200 µM.

As for `ClCc1nn(-c2ccccc2)c(CCl)c1CCl`, the EC50 was more than 200 µM and the IC50 was 1.23 µM.

In the case of `O=C(c1ccccc1)n1c2ccc(Br)cc2c2nc3ccccc3nc21`, the EC50 is more than 50.1 µM and the IC50 is more than 50.1 µM.

These data come from PubChem BioAssay AID179 (DTP/NCI, 2004).
